Results reported in paper PMC1890308, “Anti-calmodulins and Tricyclic Adjuvants in Pain Therapy Block the TRPV1 Channel” (PLoS ONE, 2007).

Experiments:
[1] = system: heat-induced tail-flick; design: method as in PMID 8883861; conditions: cited from earlier work
[2] = system: heat evoked responses of dorsal horn neurons; test: heat-evoked responses of spinal dorsal horn neurons, microiontophoresis, extracellular single unit recording; assay type: in vivo, rat
Protocol: To validate in vivo efficacy of calmidazolium, experiments were carried out in a total of 22 nociceptive specific (NS) or wide dynamic range (WDR) spinal dorsal horn neurons in 16 lightly anesthetized rats. Effects of calmidazolium were studied on the heat evoked responses of dorsal horn neurons using noxious peripheral heat stimuli delivered in every 3 min in the cutaneous receptive field of the hind paw. After establishing stable baseline control responses, calmidazolium was iontophoresed (i.e. with 100 nA) from one of the barrels of the compound electrode. […] The calmidazolium evoked inhibition reached its maximum within 10 to 15 min after ejection and lasted throughout the entire recording periods (about 2 hrs) of the experiment. The monitored cells had excitatory receptive fields located on one of the hind paws. These cells usually had little spontaneous activity, located between 100–600 µm from the surface of the dorsal horn, as estimated by microdrive readings. […] Likewise to that determined previously in TRPV1-NIH3T3 cells, TRPV1-HaCaT keratinocyte lines and primary culture of nociceptive neurons, calmidazolium inhibited the ratemeter recorded signals of radiation heat pain in the rat (Fig. 7). […]

[3] = system: formalin-induced pain; design: method as in PMID 8883861; conditions: rat, intrathecal; cited from earlier work
[4] = system: NMDA receptors; test: NMDA-evoked responses of spinal dorsal horn neurons, microiontophoresis; assay type: in vivo; conditions: anesthetized rat, iontophoresis, mean±SD, n = 16
Protocol: In another set of experiments, effects of calmidazolium were investigated on the responses of dorsal horn neurons evoked by NMDA and kainic acid agonists of different glutamate receptors, well characterized transducers of pain signals, more centrally. Neuronal firing responses to iontophoresed NMDA or kainic acid were typically fast in onset and short in duration (Fig. 8). Ejection currents for these excitatory agents were delivered alternately in every 2 min and were selected to produce a maximal peak height of 50–70 spikes/s which corresponded to 300–400 action potentials per stimulation epoch. Iontophoretic application of calmidazolium produced significant reduction in responses to both NMDA and kainic acid. Maximal inhibition of NMDA- or kainic acid -evoked responses were reached 15–20 min after calmidazolium application and remained so during the rest of the 2 hour long experiment. […]
Extracellular single-neuron recordings were made in chloral hydrate-anesthetized ([…] initial dose, i.p., with supplemental doses as required) male Wistar rats weighing between 350–450 g. […] Rectal temperature as well as the temperature of the mineral oil were monitored with temperature probes and kept at 37°C by a warm water-heated blanket beneath the rat and an infrared heat lamp from above. […]

## Clc1ccc(C(c2ccc(Cl)cc2)n2cc[n+](CC(OCc3ccc(Cl)cc3Cl)c3ccc(Cl)cc3Cl)c2)cc1 (centres unmarked) [calmidazolium]
[1]
  effect on heat-induced tail-flick latency: inhibit
[2]; anesthetized rat, iontophoresis 100 nA, noxious peripheral heat on hind paw, mean±SD, n = 6
  heat-evoked responses, % of pre-calmidazolium baseline control: 34±23%
[2]; heat-evoked responses, rat
  duration of inhibition (entire recording period): about 2 hrs
[3]
  analgesia in both phases of formalin tests: analgesic
[4]
  responses to NMDA, % of pre-calmidazolium baseline control: 13±12%
